# Test results taken from ChEMBL document CHEMBL1130713, “Development of 2,2-dimethylchromanol cysteinyl LT1 receptor antagonists” (Bioorg Med Chem Lett, 1998).
# Assays:
# [1] = species: Homo sapiens; assay: Compound was tested for its ability to inhibit calcium influx in human U937 cells; type: functional, cell-based; conditions: U-937
# [2] = Half-life was evaluated in plasma of rat; type: ADME, organism-based
# [3] = Volume of distribution after intravenous administration was evaluated in rat; type: ADME, organism-based; conditions: in vivo, read-out: Vdss
# [4] = tested on: Cavia porcellus; assay: Compound was tested for its ability to block antigen induced airway obstruction in guinea pig at dose 1 mg/kg at 1 hr; type: functional
# [5] = tested on: Rattus norvegicus; assay: Hepatic clearance after intravenous administration was evaluated in rat; type: ADME, organism-based, Liver; conditions: in vivo
# [6] = biological target: T1, Cysteinyl leukotriene receptor 1 (Cavia porcellus, UniProt Q2NNR5); assay: Antagonism of Cysteinyl leukotriene receptor 1 from guinea pig lung membranes; type: functional, tissue-based
# T1 sequence (Q2NNR5 whole entry): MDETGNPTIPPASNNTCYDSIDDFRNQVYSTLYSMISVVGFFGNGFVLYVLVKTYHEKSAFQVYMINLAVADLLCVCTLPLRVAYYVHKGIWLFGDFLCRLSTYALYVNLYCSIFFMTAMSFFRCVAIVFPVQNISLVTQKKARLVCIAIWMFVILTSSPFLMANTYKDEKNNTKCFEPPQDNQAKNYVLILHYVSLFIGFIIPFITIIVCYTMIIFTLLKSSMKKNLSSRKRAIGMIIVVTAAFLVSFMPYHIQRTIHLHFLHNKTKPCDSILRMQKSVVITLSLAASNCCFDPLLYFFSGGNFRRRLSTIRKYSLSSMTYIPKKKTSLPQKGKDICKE
# [7] = tested on: Cavia porcellus; assay: Compound was tested for its ability to block antigen induced airway obstruction in guinea pig at dose 1 mg/kg at 2 hr; type: functional
IC50 [1],half-life [2],Vd [3],Clp [5],Ki [6],SMILES,inhibition in vivo at 1 mg/kg [4],inhibition in vivo at 1 mg/kg [7]
0.5 nM,3.6 h,1.6 L/kg,6.7 mL/min/kg,4 nM,COc1ccc(NS(=O)(=O)C(F)(F)F)cc1C[C@H]1[C@@H](O)c2cc(OCc3ccc4ccc(Cl)cc4n3)ccc2OC1(C)C,57.9%,
17 nM,,,,4 nM,CC1(C)Oc2ccc(OCc3nc4cc(F)c(F)cc4s3)cc2[C@H](O)[C@@H]1Cc1cc(NS(=O)(=O)C(F)(F)F)ccc1Cl,,
1 nM,,,,,O=C(Nc1cccc2c(=O)cc(-c3nnn[nH]3)oc12)c1ccc(OCCCCc2ccccc2)cc1,50.1%,
8 nM,,,,,C[C@H]1Oc2ccc(OCc3nc4cc(F)ccc4s3)cc2[C@H](O)[C@@H]1Cc1cccc(NS(=O)(=O)C(F)(F)F)c1,66.5%,
2 nM,,,,7 nM,CC1(C)Oc2ccc(OCc3nc4cc(F)c(F)cc4s3)cc2[C@H](O)[C@@H]1Cc1cccc(NS(=O)(=O)C(F)(F)F)c1,,45.8%
0.2 nM,,,,5 nM,COc1ccc(NS(=O)(=O)C(F)(F)F)cc1C[C@H]1[C@@H](O)c2cc(/C=C/c3ccc4ccc(Cl)cc4n3)ccc2OC1(C)C,,40.8%
0.3 nM,3.9 h,3.8 L/kg,16 mL/min/kg,2 nM,COc1ccc(NS(=O)(=O)C(F)(F)F)cc1C[C@H]1[C@@H](O)c2cc(OCc3nc4cc(F)c(F)cc4s3)ccc2OC1(C)C,,37.8%
310 nM,1.3 h,0.4 L/kg,3.3 mL/min/kg,14 nM,O=C(O)c1cccc(C[C@@H]2COc3ccc(OCc4nc5cc(F)ccc5s4)cc3[C@@H]2O)c1,,56%
1 nM,,,,,COc1cc(C(=O)NS(=O)(=O)c2ccccc2C)ccc1Cc1cn(C)c2ccc(NC(=O)OC3CCCC3)cc12 [ZAFIRLUKAST],,51.6%
